{"source": "paper PMC2201222", "about": "(The Journal of General Physiology, 1968)", "key": {"[1]": {"test": "Activity toward Na+-K+ transport across sheep red cell and thin lipid membranes", "conditions": "for selectivity for K+ over Na+ (section heading of Table II): sheep red cells and thin lipid membranes"}, "[2]": {"test": "Electrical resistance and potential of thin lipid", "design": "species or system sheep", "conditions": "about 22C, unbuffered pH 5.6"}, "[3]": {"format": "physicochemical", "conditions": "read-out by bilayer resistance"}, "[4]": {"conditions": "general statement, no method or reference given; cited from earlier work"}}, "data": [{"molecule": "C=C1NC(=O)CC[C@@H](C(=O)O)NC(=O)[C@H](NC(=O)[C@H](CCCCN)NC(=O)[C@@H](N)Cc2c[nH]c3ccccc23)CSC[C@@H](C(=O)N[C@@H]2C(=O)N3CCC[C@H]3C(=O)NCC(=O)N[C@H](C(=O)N[C@H](C(=O)N[C@@H]3C(=O)NCC(=O)N[C@@H](C)C(=O)N[C@@H](CC(C)C)C(=O)N[C@@H](CCC(N)=O)C(=O)N/C(=C/C)C(=O)N[C@H](C(=O)N[C@@H](Cc4ccccc4)C(=O)N[C@@H](CC(C)C)C(=O)N[C@@H](CCC(N)=O)C(=O)N[C@@H]4C(=O)N[C@@H](CC(C)C)C(=O)N[C@H]5C(=O)N[C@@H](CSC4C)C(=O)NC(=O)[C@H](CC(N)=O)N[C@H](C(=O)N[C@@H](CCCCN)C(=O)N[C@H](C(=O)NC(=C)C(=O)N[C@@H](CCCCN)C(=O)O)[C@@H](C)CC)CSC5C)CSC3C)C(C)C)CSC2C)N[C@@H](CC(C)C)C(=O)NC1=O", "note": "(some centres unmarked) [Subtilin]", "values": [{"measurement": "activity on cation selectivity (section heading of Table II)", "setting": "[1]; maximum conc. tested 10^-6 M", "value": "Inactive"}]}, {"molecule": "Bacitracin A", "values": [{"measurement": "activity on cation selectivity (section heading of Table II)", "setting": "[1]; maximum conc. tested 10^-6 M", "value": "Inactive"}]}, {"molecule": "Gramicidin B", "values": [{"measurement": "Bilayers, TNa/TK (ratio of the transference number for Na+ to that for K+)", "setting": "[2]; compound 10^-6 M", "value": 0.4}, {"measurement": "selectivity for K+ over Na+ (section heading of Table II)", "setting": "[1]", "value": "moderate to low selectivity"}]}, {"molecule": "Gramicidin A", "values": [{"measurement": "selectivity for K+ over Na+ (section heading of Table II)", "setting": "[1]", "value": "moderate to low selectivity"}]}, {"molecule": "CC(C)[C@@H]1NC(=O)[C@H](C)OC(=O)[C@@H](C(C)C)NC(=O)[C@@H](C(C)C)OC(=O)[C@H](C(C)C)NC(=O)[C@H](C)OC(=O)[C@@H](C(C)C)NC(=O)[C@@H](C(C)C)OC(=O)[C@H](C(C)C)NC(=O)[C@H](C)OC(=O)[C@@H](C(C)C)NC(=O)[C@@H](C(C)C)OC1=O", "note": "[Valinomycin, valinomycin]", "values": [{"measurement": "Partition coefficient between decane and NaCl (0.1 M), compared with KCl (0.1 M)", "setting": "[3]; aqueous phase NaCl (0.1 M)", "value": "the same"}, {"measurement": "Partition coefficient between decane and pure H2O, compared with KCl (0.1 M)", "setting": "[3]; aqueous phase pure H2O", "value": "the same"}, {"measurement": "solubility in water", "setting": "[4]", "value": "almost insoluble"}]}, {"molecule": "Viridogrisein", "values": [{"measurement": "activity on cation selectivity (section heading of Table II)", "setting": "[1]; maximum conc. tested 10^-6 M", "value": "Inactive"}]}, {"molecule": "Polymixin B", "values": [{"measurement": "activity on cation selectivity (section heading of Table II)", "setting": "[1]; maximum conc. tested 10^-5 M", "value": "Inactive"}]}, {"molecule": "Phalloidin", "values": [{"measurement": "activity on cation selectivity (section heading of Table II)", "setting": "[1]; maximum conc. tested 10^-4 M", "value": "Inactive"}]}, {"molecule": "C[C@@H]1C[C@H]2CC[C@H](O2)[C@H](C)C(=O)O[C@@H](C)C[C@@H]2CC[C@@H](O2)[C@@H](C)C(=O)O[C@H](C)C[C@H]2CC[C@H](O2)[C@H](C)C(=O)O[C@@H](C)C[C@@H]2CC[C@@H](O2)[C@@H](C)C(=O)O1", "note": "[Nonactin, nonactin]", "values": [{"measurement": "Bilayers, TNa/TK (ratio of the transference number for Na+ to that for K+)", "setting": "[2]; compound 10^-7 M", "value": "< 0.01"}, {"measurement": "selectivity for K+ over Na+ (section heading of Table II)", "setting": "[1]", "value": "high selectivity"}]}, {"molecule": "CO[C@@H]1C[C@@H](C[C@H]2CC[C@H](C)[C@H]([C@@H](C)C(=O)O)O2)O[C@]2(O[C@](C)([C@H]3CC[C@@](C)([C@@H]4O[C@@H]([C@H]5O[C@@](O)(CO)[C@H](C)C[C@@H]5C)C[C@@H]4C)O3)C[C@H]2C)[C@@H]1C", "note": "[Nigericin]", "values": [{"measurement": "Bilayers, TNa/TK (ratio of the transference number for Na+ to that for K+)", "setting": "[2]; compound 10^-6 M", "value": "< 0.", "unit": "I"}, {"measurement": "selectivity for K+ over Na+ (section heading of Table II)", "setting": "[1]", "value": "moderate to low selectivity"}]}, {"molecule": "Gramicidin C", "values": [{"measurement": "selectivity for K+ over Na+ (section heading of Table II)", "setting": "[1]", "value": "moderate to low selectivity"}]}, {"molecule": "Vernamycin", "values": [{"measurement": "activity on cation selectivity (section heading of Table II)", "setting": "[1]; maximum conc. tested 10^-5 M", "value": "Inactive"}]}]}
